Marks after values point to notes of the source that are not given here.
target: T1, turkey β3C-adrenoceptor (tβ3C) (Meleagris gallopavo, UniProt A0A803YLI8); test: 3H-CGP12177 whole cell binding, CHO tβ3C cells; settings: competition with 3H-CGP12177, whole cells, CHO tβ3C; given as log KD; mean ± s.e.m.
T1 sequence (A0A803YLI8 entry or part of it): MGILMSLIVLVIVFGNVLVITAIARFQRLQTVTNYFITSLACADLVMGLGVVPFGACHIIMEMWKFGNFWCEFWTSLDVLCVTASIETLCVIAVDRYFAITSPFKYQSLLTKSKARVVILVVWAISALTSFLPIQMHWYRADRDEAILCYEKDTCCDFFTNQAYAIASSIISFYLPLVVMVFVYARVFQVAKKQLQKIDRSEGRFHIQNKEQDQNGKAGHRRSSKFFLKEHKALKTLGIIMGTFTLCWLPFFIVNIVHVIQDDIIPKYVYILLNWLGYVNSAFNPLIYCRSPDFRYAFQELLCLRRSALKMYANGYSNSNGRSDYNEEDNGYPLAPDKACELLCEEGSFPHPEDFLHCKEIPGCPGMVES

| Structure (SMILES) | Log KD |
| --- | --- |
| C[C@H](Cc1ccc2c(c1)OC(C(=O)[O-])(C(=O)[O-])O2)NC[C@H](O)c1cccc(Cl)c1.[Na+].[Na+] [CL316243] | >−4 |
| CC(C)OC(=O)c1cc2c(OCC(O)CNC(C)(C)C)cccc2[nH]1 (stereo not drawn) [SDZ21009] | −10.17±0.08 |
| Br.COC(=O)COc1ccc(CC(C)NC[C@H](O)c2cccc(Cl)c2)cc1 (stereo partly drawn) [BRL35135A] | −7.42±0.06 |
| COCCNC(=O)COc1ccc(OCCNC[C@H](O)COc2ccccc2)cc1 [ZD7114] | −6.59±0.10 |
| CCCCCCNC(=O)Nc1ccc(S(=O)(=O)Nc2ccc(CCNC[C@H](O)COc3ccc(O)cc3)cc2)cc1 [L755507] | −6.56±0.06 |

same assay, conditions: competition with 3H-CGP12177, whole cells, CHO tβ3C; given as log KD; mean ± s.e.m.; read-out: Log KD (converted)

| Structure (SMILES) | Kd [nM] |
| --- | --- |
| O=C(O)Cc1ccc(OCCNC[C@H](O)c2ccccc2)cc1 [ZD2079] | > 100000 |
| CC(C)(C)NCC(O)COc1cccc2c1CC(O)C(O)C2 (stereo not drawn) [Nadolol] | 11.2 |
| CC(CCc1ccc(O)cc1)NCCc1ccc(O)c(O)c1 (stereo not drawn) [Dobutamine] | 2690 |
| OC(CNCC(O)C1CCc2cc(F)ccc2O1)C1CCc2cc(F)ccc2O1 (stereo not drawn) [Nebivolol] | 16.6 |
| Cc1ccc(Cl)c(OCC(O)CNC(C)(C)C)c1 (stereo not drawn) [Bupranolol] | 0.851 |
| CC(C)NCC(O)c1cc(O)cc(O)c1 (stereo not drawn) [Metaproterenol] | 4170 |
| COc1ccc(CCNC[C@H](O)c2ccc(O)cc2)cc1OC [Denopamine] | 2340 |
| CC(C)NCC(O)c1ccc2ccccc2c1 (stereo not drawn) [Pronethalol] | 102 |

target: T2, turkey β4C-adrenoceptor (tβ4C) (Meleagris gallopavo, UniProt P43141); test: cell-based; format: binding; settings: not given
T2 construct: expressed in transfected cells
T2 sequence (P43141 whole entry): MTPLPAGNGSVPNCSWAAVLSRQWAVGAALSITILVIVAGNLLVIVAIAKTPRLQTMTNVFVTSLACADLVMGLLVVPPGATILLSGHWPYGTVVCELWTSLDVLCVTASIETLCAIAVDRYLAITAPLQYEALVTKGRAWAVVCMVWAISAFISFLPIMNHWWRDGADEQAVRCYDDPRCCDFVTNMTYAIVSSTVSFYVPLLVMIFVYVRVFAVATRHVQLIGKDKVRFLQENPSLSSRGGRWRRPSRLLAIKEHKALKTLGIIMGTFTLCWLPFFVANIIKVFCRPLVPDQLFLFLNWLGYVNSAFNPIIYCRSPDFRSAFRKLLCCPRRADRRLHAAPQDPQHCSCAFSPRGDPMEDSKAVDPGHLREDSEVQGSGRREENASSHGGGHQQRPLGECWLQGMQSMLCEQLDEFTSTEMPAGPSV

| Structure (SMILES) | Kd [nM] |
| --- | --- |
| CC(C)NCC(O)c1ccc2ccccc2c1 (stereo not drawn) [Pronethalol] | 87.1 |

same assay, conditions: competition with 3H-CGP12177, whole cells, CHO tβ4C; given as log KD; mean ± s.e.m.

| Structure (SMILES) | Log KD |
| --- | --- |
| C[C@H](Cc1ccc2c(c1)OC(C(=O)[O-])(C(=O)[O-])O2)NC[C@H](O)c1cccc(Cl)c1.[Na+].[Na+] [CL316243] | >−4 |
| CC(C)OC(=O)c1cc2c(OCC(O)CNC(C)(C)C)cccc2[nH]1 (stereo not drawn) [SDZ21009] | −9.06±0.07 |
| Br.COC(=O)COc1ccc(CC(C)NC[C@H](O)c2cccc(Cl)c2)cc1 (stereo partly drawn) [BRL35135A] | −6.39±0.03 |
| COCCNC(=O)COc1ccc(OCCNC[C@H](O)COc2ccccc2)cc1 [ZD7114] | −7.59±0.04 |
| CCCCCCNC(=O)Nc1ccc(S(=O)(=O)Nc2ccc(CCNC[C@H](O)COc3ccc(O)cc3)cc2)cc1 [L755507] | −7.63±0.11 |

same assay, conditions: competition with 3H-CGP12177, whole cells, CHO tβ4C; given as log KD; mean ± s.e.m.; read-out: Log KD (converted)

| Structure (SMILES) | Kd [nM] |
| --- | --- |
| O=C(O)Cc1ccc(OCCNC[C@H](O)c2ccccc2)cc1 [ZD2079] | > 100000 |
| CC(C)(C)NCC(O)COc1cccc2c1CC(O)C(O)C2 (stereo not drawn) [Nadolol] | 18.2 |
| CC(CCc1ccc(O)cc1)NCCc1ccc(O)c(O)c1 (stereo not drawn) [Dobutamine] | 1000 |
| OC(CNCC(O)C1CCc2cc(F)ccc2O1)C1CCc2cc(F)ccc2O1 (stereo not drawn) [Nebivolol] | 1.48 |
| Cc1ccc(Cl)c(OCC(O)CNC(C)(C)C)c1 (stereo not drawn) [Bupranolol] | 6.61 |
| CC(C)NCC(O)c1cc(O)cc(O)c1 (stereo not drawn) [Metaproterenol] | 7410 |
| COc1ccc(CCNC[C@H](O)c2ccc(O)cc2)cc1OC [Denopamine] | 1120 |

target: T1, turkey β3C-adrenoceptor (tβ3C); test: CRE-SPAP production, CHO tβ3C cells; format: cell-based; settings: CRE-SPAP production, CHO tβ3C cells; read-out: Log EC50 (converted)

| Structure (SMILES) | EC50 [nM] |
| --- | --- |
| CC(CCc1ccc(O)cc1)NCCc1ccc(O)c(O)c1 (stereo not drawn) [Dobutamine] | 427 |

same assay, conditions: read-out: % isop max

| Structure (SMILES) | Emax [%] |
| --- | --- |
| CC(C)NCC(O)c1ccc(N)c(C#N)c1 (stereo not drawn) [Cimaterol] | 103 ± 2.2 |
| CC(CCc1ccc(O)cc1)NCCc1ccc(O)c(O)c1 (stereo not drawn) [Dobutamine] | 101 ± 3.7 |

target: T2, turkey β4C-adrenoceptor (tβ4C); test: cell-based; format: cell-based; settings: CRE-SPAP production, CHO tβ4C cells; read-out: Log EC50 (converted)

| Structure (SMILES) | EC50 [nM] |
| --- | --- |
| CC(CCc1ccc(O)cc1)NCCc1ccc(O)c(O)c1 (stereo not drawn) [Dobutamine] | 158 |

same assay, conditions: CRE-SPAP, % of 10 µM isoprenaline maximum, CHO tβ4C cells

| Structure (SMILES) | % isop max [%] |
| --- | --- |
| CC(C)NCC(O)c1ccc(N)c(C#N)c1 (stereo not drawn) [Cimaterol] | 98.2±2.3 |
| CC(CCc1ccc(O)cc1)NCCc1ccc(O)c(O)c1 (stereo not drawn) [Dobutamine] | 110.4±2.4 |

target: Human β1-adrenoceptor; test: not given; set-up: method as in PMID 15655528, PMID 20590599; settings: Human β1, given for comparison; ref 25 and 30; cited from earlier work

| Structure (SMILES) | Log KD |
| --- | --- |
| O=C(O)Cc1ccc(OCCNC[C@H](O)c2ccccc2)cc1 [ZD2079] | −4.21 |
| CC(C)(C)NCC(O)COc1cccc2c1CC(O)C(O)C2 (stereo not drawn) [Nadolol] | −7.23 |
| CC(CCc1ccc(O)cc1)NCCc1ccc(O)c(O)c1 (stereo not drawn) [Dobutamine] | −5.23 |
| C[C@H](Cc1ccc2c(c1)OC(C(=O)[O-])(C(=O)[O-])O2)NC[C@H](O)c1cccc(Cl)c1.[Na+].[Na+] [CL316243] | >−3 |
| Cc1ccc(Cl)c(OCC(O)CNC(C)(C)C)c1 (stereo not drawn) [Bupranolol] | −8.51 |
| Br.COC(=O)COc1ccc(CC(C)NC[C@H](O)c2cccc(Cl)c2)cc1 (stereo partly drawn) [BRL35135A] | −6.08 |
| CC(C)NCC(O)c1cc(O)cc(O)c1 (stereo not drawn) [Metaproterenol] | −4.71 |
| CC(C)NCC(O)c1ccc2ccccc2c1 (stereo not drawn) [Pronethalol] | −6.44 |
| CCCCCCNC(=O)Nc1ccc(S(=O)(=O)Nc2ccc(CCNC[C@H](O)COc3ccc(O)cc3)cc2)cc1 [L755507] | −6.23 |

target: Human β2-adrenoceptor; test: not given; set-up: method as in PMID 15655528, PMID 20590599; settings: Human β2, given for comparison; ref 25 and 30; cited from earlier work

| Structure (SMILES) | Log KD |
| --- | --- |
| O=C(O)Cc1ccc(OCCNC[C@H](O)c2ccccc2)cc1 [ZD2079] | >−4 |
| CC(C)NCC(O)c1ccc(N)c(C#N)c1 (stereo not drawn) [Cimaterol] | −7.26 |
| CC(C)(C)NCC(O)COc1cccc2c1CC(O)C(O)C2 (stereo not drawn) [Nadolol] | −8.60 |
| CC(CCc1ccc(O)cc1)NCCc1ccc(O)c(O)c1 (stereo not drawn) [Dobutamine] | −5.84 |
| OC(CNCC(O)C1CCc2cc(F)ccc2O1)C1CCc2cc(F)ccc2O1 (stereo not drawn) [Nebivolol] | −7.92 |
| CC(C)OC(=O)c1cc2c(OCC(O)CNC(C)(C)C)cccc2[nH]1 (stereo not drawn) [SDZ21009] | −10.28 |
| Br.COC(=O)COc1ccc(CC(C)NC[C@H](O)c2cccc(Cl)c2)cc1 (stereo partly drawn) [BRL35135A] | −7.38 |
| CC(C)NCC(O)c1cc(O)cc(O)c1 (stereo not drawn) [Metaproterenol] | −5.30 |
| COCCNC(=O)COc1ccc(OCCNC[C@H](O)COc2ccccc2)cc1 [ZD7114] | −7.31 |
| COc1ccc(CCNC[C@H](O)c2ccc(O)cc2)cc1OC [Denopamine] | −5.83 |
| CCCCCCNC(=O)Nc1ccc(S(=O)(=O)Nc2ccc(CCNC[C@H](O)COc3ccc(O)cc3)cc2)cc1 [L755507] | −6.83 |

target: Human β3-adrenoceptor; test: not given; settings: Human β3, binding to site 1; cited from earlier work

| Structure (SMILES) | Log KD |
| --- | --- |
| CCCCCCNC(=O)Nc1ccc(S(=O)(=O)Nc2ccc(CCNC[C@H](O)COc3ccc(O)cc3)cc2)cc1 [L755507] | −8.60 ^* |

same assay, conditions: Human β3, given for comparison; ref 25 and 30; cited from earlier work

| Structure (SMILES) | Log KD |
| --- | --- |
| O=C(O)Cc1ccc(OCCNC[C@H](O)c2ccccc2)cc1 [ZD2079] | −4.59 |
| CC(C)NCC(O)c1ccc(N)c(C#N)c1 (stereo not drawn) [Cimaterol] | −5.28 |
| CC(C)(C)NCC(O)COc1cccc2c1CC(O)C(O)C2 (stereo not drawn) [Nadolol] | −6.18 |
| CC(CCc1ccc(O)cc1)NCCc1ccc(O)c(O)c1 (stereo not drawn) [Dobutamine] | −5.09 |
| C[C@H](Cc1ccc2c(c1)OC(C(=O)[O-])(C(=O)[O-])O2)NC[C@H](O)c1cccc(Cl)c1.[Na+].[Na+] [CL316243] | −5.11 |
| OC(CNCC(O)C1CCc2cc(F)ccc2O1)C1CCc2cc(F)ccc2O1 (stereo not drawn) [Nebivolol] | −7.04 |
| CC(C)OC(=O)c1cc2c(OCC(O)CNC(C)(C)C)cccc2[nH]1 (stereo not drawn) [SDZ21009] | −7.10 |
| Cc1ccc(Cl)c(OCC(O)CNC(C)(C)C)c1 (stereo not drawn) [Bupranolol] | −7.04 |
| Br.COC(=O)COc1ccc(CC(C)NC[C@H](O)c2cccc(Cl)c2)cc1 (stereo partly drawn) [BRL35135A] | −6.73 |
| CC(C)NCC(O)c1cc(O)cc(O)c1 (stereo not drawn) [Metaproterenol] | −4.06 |
| COCCNC(=O)COc1ccc(OCCNC[C@H](O)COc2ccccc2)cc1 [ZD7114] | −6.78 |
| COc1ccc(CCNC[C@H](O)c2ccc(O)cc2)cc1OC [Denopamine] | −5.30 |
| CC(C)NCC(O)c1ccc2ccccc2c1 (stereo not drawn) [Pronethalol] | −5.89 |
